Results on nine molecules are retold here after paper PMC8562773, “Perfluoroalkyl Carboxylic Acids Interact with the Human Bile Acid Transporter NTCP” (Livers, 2021).

For data set [1] the following is noted: humans; cited from earlier work.
On the set-up of data set [2]: method as in PMID 33201517, PMID 18353799. The note with it: laboratory rodents; cited from earlier work.
The next data set deals with NTCP. Details: method as in PMID 26001962. The settings on record: perfluoroalkyl sulfonates, previously obtained; cited from earlier work.
The target of data set [3] is T1, human Na+/taurocholate cotransporting polypeptide (NTCP) (Homo sapiens, UniProt Q14973).
T1 construct: containing the human NTCP open reading frame with a C-terminal 6-His tag; expressed in transfected cells
T1 sequence (Q14973 1-349): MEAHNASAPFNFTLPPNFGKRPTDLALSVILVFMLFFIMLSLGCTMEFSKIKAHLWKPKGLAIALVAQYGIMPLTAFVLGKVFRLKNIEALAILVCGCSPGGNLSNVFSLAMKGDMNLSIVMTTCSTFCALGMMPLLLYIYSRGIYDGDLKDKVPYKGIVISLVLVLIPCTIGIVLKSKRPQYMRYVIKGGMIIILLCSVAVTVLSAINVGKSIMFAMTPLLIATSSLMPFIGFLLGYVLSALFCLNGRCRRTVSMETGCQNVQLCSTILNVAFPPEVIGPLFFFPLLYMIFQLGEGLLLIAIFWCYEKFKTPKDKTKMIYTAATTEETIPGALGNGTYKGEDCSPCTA
The data set is described as follows: Inhibition of NTCP-mediated [3H]-taurocholate uptake in NTCP-expressing HEK293 cells. Format: cell-based. The note with it: for IC50 / inhibition of NTCP-mediated taurocholate uptake: 1 μM [3H]-taurocholate, 1 min, 37 °C; for IC50: sodium-containing buffer, 3 independent experiments; for inhibition of NTCP-mediated taurocholate uptake / statistically significant inhibition of taurocholate uptake: 10 μM PFCA; for inhibition of NTCP-mediated taurocholate uptake: NTCP-HEK293; for statistically significant inhibition of taurocholate uptake: 1 μM taurocholate, p < 0.05 vs control. How it is done: (§1) Flp-In™-293 (HEK293) cells were purchased from Thermo Fisher Scientific (Waltham, MA, USA) and grown at 37 °C in a humidified 5% CO2 atmosphere in Dulbecco’s Modified Eagle’s Medium (DMEM) obtained from the American Type Culture Collection (ATCC, Manassas, VA, USA: 30-2002). The medium was supplemented with 10% fetal bovine serum (FBS) (Hyclone, Logan, UT, USA), and 100 U/mL penicillin, 100 μg/mL streptomycin (Thermo fisher Scientific). The pcDNA5/FRT plasmid containing the human NTCP open reading frame with a C-terminal 6-His tag was used to generate a stable NTCP-expressing cell line using hygromycin selection. A single clone was isolated using a cloning cylinder and cultivated in the above DMEM with the addition of 500 μg/mL hygromycin (Thermo Fisher Scientific). For transport experiments, cells were plated on poly-D-lysine-coated 24-well plates at 300,000 cells per well for uptake experiments after 48 h or at 200,000 cells per well for uptake experiments after 72 h. Uptake experiments and LC-MS/MS analysis were performed at the time points indicated in the figure legends as previously described.
To investigate whether PFCAs would interact with the human Na^+/taurocholate cotransporting polypeptide (NTCP), we determined to what extent perfluorinated carboxylic acids with chain lengths from 3 to 18 carbon atoms (C3 to C18) would inhibit NTCP-mediated taurocholate uptake. For these experiments, we measured the uptake of 1 μM taurocholate in the presence and absence of 10 or 100 μM of each of the PFCAs.
Figure 1. […] Uptake was measured in sodium-containing (NaCl) or sodium-free (ChCl) buffer for 1 min at 37 °C and corrected for protein. Uptake then was normalized to control (NaCl) and individual values of 1 or 2 experiments performed in triplicates are presented. Bars represent the mean ± SD, asterisks indicate significant differences to the control (NaCl) at p < 0.05.
For these experiments, NTCP-mediated uptake of 1 μM taurocholate was measured in the absence and presence of increasing concentrations of perfluorinated compounds. For PFOA and PFNA, the concentrations ranged from 0.1 to 1000 μM, while the concentrations for PFDA were between 0.1 and 100 μM, due to solubility limitations.
Figure 2. […] Uptake of 1 μM [^3H]-taurocholate was measured into NTCP-expressing HEK293 cells in the absence or presence of increasing concentrations of (A) perfluorooctanoic acid (PFOA), (B) perfluorononanoic acid (PFNA), or (C) perfluorodecanoic acid (PFDA). Uptake was measured for 1 min at 37 °C in a sodium-containing buffer and corrected for protein. After conversion of the data to percent of control, IC50 values were calculated using GraphPad Prism V9 using the “One site-Fit logIC50” equation from 3 independent experiments performed in triplicates. The 95% confidence intervals are given in parentheses.

The target of data set [4] is T1, human Na+/taurocholate cotransporting polypeptide (NTCP). Description: Inhibition kinetics of NTCP-mediated taurocholate transport in NTCP-expressing HEK293 cells. Format: cell-based. The note with it: for type of inhibition of NTCP-mediated taurocholate uptake: inhibition kinetics, best fit. As for the experimental part:
as §1
Figure 3. Kinetics of taurocholate uptake in the absence and presence of PFOA, PFNA, and PFDA. Uptake of increasing concentrations of [^3H]-taurocholate into NTCP-expressing HEK293 cells was measured for 15 s (within the initial linear rate) at 37 °C in a sodium-containing buffer in the absence or presence of 10 and 100 μM of (A) PFOA, (B) PFDA, or (C) PFNA. After correction for protein, the results were analyzed using GraphPad Prism V9 using the “Enzyme kinetics–Inhibition” equations. […] Mean ± SD values of two independent experiments performed in triplicate are shown.

In another data set the target is T2, human NTCP (Homo sapiens, UniProt Q14973).
T2 construct: containing the human NTCP open reading frame with a C-terminal 6-His tag; expressed in transfected cells
T2 sequence (Q14973 1-349): T1 sequence (Q14973 1-349)
Description: Sodium-dependent NTCP-mediated uptake of PFCAs into NTCP-expressing HEK293 cells (LC-MS/MS). The class given is in vitro ADME. The settings on record: for transport by NTCP (substrate, words): sodium-dependent uptake in NTCP-HEK293. How it is done:
as §1
To resolve whether PFOA, PFNA, and PFDA were substrates of NTCP, we measured the transport of these compounds. […] To better characterize this transport, we wanted to perform kinetics experiments and determine the Km and Vmax values for the three compounds. Therefore, in Figure 4, we determined the initial linear rate conditions in which to perform the kinetics experiments. We evaluated the time-dependent uptake of PFOA, PFNA, and PFDA at 10 and 300 μM in NTCP-expressing HEK293 cells in sodium-containing and sodium-free buffer. While there is a time-dependent uptake of all three PFCAs, most likely due to organic anion transporters expressed in HEK293 cells, NTCP only transports its substrates in the presence of sodium. Therefore, we calculated the net sodium-dependent uptake. Based on the time-dependent sodium-dependent uptake results shown in Figure 4, we used 20 s for PFOA (Figure 4A), 30 s for PFNA (Figure 4B), and 1 min for PFDA (Figure 4C) to perform the concentration-dependent uptake kinetics.
Figure 4. Time dependency of NTCP-mediated PFOA, PFNA, and PFDA uptake. Uptake of (A) perfluorooctanoic acid (PFOA), (B) perfluorononanoic acid (PFNA), or (C) perfluorodecanoic acid (PFDA) was measured in NTCP-expressing HEK293 cells in sodium-containing (NaCl; solid lines) or sodium-free (ChCl; dotted lines) buffer at the indicated times at 37 °C and corrected for protein. The net sodium-dependent uptake (net; dashed lines) is also shown. The results are presented as means ± SD of two combined independent experiments performed in triplicates.
For the concentration-dependent uptake of […], we were limited by solubility and could only determine uptake up to a concentration of 1 mM. […] Therefore, no kinetic constants could be calculated for PFDA.
Figure 5. Kinetics of NTCP-mediated PFOA and PFNA uptake. Uptake of increasing concentrations of (A) perfluorooctanoic acid (PFOA) or (B) perfluorononanoic acid (PFNA) was measured at 37 °C for 20 (PFOA) or 30 s (PFNA) in NTCP-expressing HEK293 cells in sodium-containing or sodium-free buffer and corrected for protein. Net uptake was calculated by subtracting uptake in the sodium-free medium from uptake in the sodium-containing medium. Values are mean ± SD of three independent experiments parformed in triplicates. Curves were fit using the Michaelis–Menten equation in GraphPad Prism V9.

On the set-up of data set [5]: method as in PMID 33201517. The note with it: laboratory mice and non-human primates; cited from earlier work.
Where [6] appears, read: competitive inhibition fit, taurocholate uptake 15 s, 37 °C, 0, 10 and 100 μM PFCA, table: 95% CI in parentheses, read-out: Ki.
Where [7] appears, read: in presence of 10 μM PFCA, 95% CI in parentheses.
Where [8] appears, read: in presence of 100 μM PFCA, 95% CI in parentheses.

“And” between values parts separate entries of the source, which are not always exact repeats. Equal entries are not always repeated. Where two headings read alike, the source gives them in different places.

In the case of `O=C(O)C(F)(F)C(F)(F)C(F)(F)F` [PFBA, perfluorobutanoic acid], the serum elimination half-life entry is listed as “a few days” in data set [1] and “a few hours” in data set [2].

For `O=S(=O)(O)C(F)(F)C(F)(F)C(F)(F)C(F)(F)F` [PFBS, perfluorobutane sulfonate], the Michaelis-Menten constant (Km) with NTCP was 39.6 µM.

Regarding `O=C(O)C(F)(F)C(F)(F)C(F)(F)C(F)(F)C(F)(F)C(F)(F)C(F)(F)C(F)(F)C(F)(F)F` [PFDA, Perfluorodecanoic acid], in data set [3], the concentration for half-maximal inhibition (IC50) was 9.5 µM and the “inhibition of NTCP-mediated taurocholate uptake” value is recorded as 60–70%. For the same molecule, the Ki in data set [4] (setting [6]) turned out to be 8.3 µM. Besides, in data set [4] (setting [7]), the “Vmax of taurocholate uptake” value was 3.2 (3.0–3.4) nmol/mg·min. Moreover, in data set [4] (setting [8]), the “Vmax of taurocholate uptake” value is 2.5 (2.2–3.0) nmol/mg·min. Further, the “type of inhibition of NTCP-mediated taurocholate uptake” value in data set [4] is listed as “competitive inhibitors”. In addition, the “saturation of sodium-dependent uptake” value at human NTCP (concentration range tested up to 300 mM (so in the source), 1 min) is recorded as “did not reach saturation”. Besides, the “transport by NTCP (substrate, words)” value on human NTCP is “can transport”.

Turning to `O=S(=O)(O)C(F)(F)C(F)(F)C(F)(F)C(F)(F)C(F)(F)C(F)(F)F` [PFHxS, perfluorohexane sulfonate], the Km in the data set with NTCP is 112 µM.

On to `O=C(O)C(F)(F)C(F)(F)C(F)(F)C(F)(F)C(F)(F)C(F)(F)C(F)(F)C(F)(F)F` [PFNA, perfluorononanoic acid], for which, in data set [3], 7.5 µM corresponded to half-maximal inhibition (IC50) and the “inhibition of NTCP-mediated taurocholate uptake” value is 60–70%. Also, in data set [4] (setting [6]), the inhibition constant Ki was 12.3 µM and 12 µM. The “Vmax of taurocholate uptake” value in data set [4] (setting [7]) was 3.5 (3.2–3.7) nmol/mg·min. Also, the “Vmax of taurocholate uptake” value in data set [4] (setting [8]) is on record as 3.1 (2.5–4.1) nmol/mg·min. The “type of inhibition of NTCP-mediated taurocholate uptake” value in data set [4] is given as “competitive inhibitors”. Further, on human NTCP (net sodium-dependent uptake, 37 °C, 20 s (PFOA) or 30 s (PFNA)), the “Vmax of sodium-dependent NTCP-mediated PFCA uptake” value was found to be 670 ± 391 nmol/mg/min. Moreover, on human NTCP (net sodium-dependent uptake, 37 °C, 20 s (PFOA) or 30 s (PFNA), PFNA value a rough estimate, saturation not reached, read-out: Km of sodium-dependent NTCP-mediated PFCA uptake), the Km was 5300 ± 3500 µM. In addition, at human NTCP, the “transport by NTCP (substrate, words)” value is “can transport”.

As to `O=C(O)C(F)(F)C(F)(F)C(F)(F)C(F)(F)C(F)(F)C(F)(F)C(F)(F)F` [PFOA, perfluorooctanoic acid], in data set [3], the IC50 came out at 28 µM and the “statistically significant inhibition of taurocholate uptake” value is “statistically significant inhibitors at 10 μM, but to a lesser extent”. In data set [4], the Ki came out at 17 µM and the “type of inhibition of NTCP-mediated taurocholate uptake” value is recorded as “competitive inhibitors”. In data set [4] (setting [7]), the “Vmax of taurocholate uptake” value is 3.0 (2.8–3.2) nmol/mg·min. The “Vmax of taurocholate uptake” value in data set [4] (setting [8]) was 2.8 (2.6–3.1) nmol/mg·min. The “Ki value lower than Km value” at human NTCP (Ki (taurocholate uptake inhibition) versus Km (own transport)) is “about 100 fold”. Further, the “transport by NTCP (substrate, words)” value on human NTCP is reported as “can transport”. Also, the serum elimination half-life result in data set [1] was “several years”. For the same molecule, the serum elimination half-life entry in data set [5] was “days to weeks”.

With `O=S(=O)(O)C(F)(F)C(F)(F)C(F)(F)C(F)(F)C(F)(F)C(F)(F)C(F)(F)C(F)(F)F` [PFOS, perfluorooctane sulfonate], the Km in the data set with NTCP was 130 µM.

As for `O=C(O)C(F)(F)C(F)(F)C(F)(F)C(F)(F)C(F)(F)C(F)(F)C(F)(F)C(F)(F)C(F)(F)C(F)(F)F` [perfluoroundecanoic acid], the “statistically significant inhibition of taurocholate uptake” value in data set [3] is recorded as “statistically significant inhibitors at 10 μM, but to a lesser extent”.

For the molecule `C[C@H](CCC(=O)NCCS(=O)(=O)O)[C@H]1CC[C@H]2[C@@H]3[C@H](O)C[C@@H]4C[C@H](O)CC[C@]4(C)[C@H]3C[C@H](O)[C@]12C` [taurocholate, reference compound], the “Vmax of taurocholate uptake” value in data set [4] (concentration of PFCA 0 (control of each PFCA series), 95% CI in parentheses) was 2.9 (2.7–3.2) nmol/mg·min and 3.2 (2.9–3.4) nmol/mg·min and 3.5 (3.2–3.8) nmol/mg·min. The Michaelis-Menten constant (Km) in data set [4] (concentration of PFCA 0 (control of each PFCA series), 95% CI in parentheses, read-out: Km of taurocholate uptake) was 12 µM and 16 µM.

A word on the Km: it is the concentration of substrate that gives half-maximal velocity. Broadly, the IC50 is the concentration needed to halve the response being measured. High values mean weaker potency, low ones greater potency. A word on the Ki: it is the dissociation constant of the complex between target and ligand, obtained from inhibition or displacement.
